Where a name gives a salt, the structure may show the parent alone.
tested on: HT-29 cells; assay: HT-29 necroptosis cell viability assay (TNF-α/SMAC mimetic/zVAD-FMK, CellTiter-Glo); type: cell-based; conditions: Homo sapiens, HT-29, HT-29 necroptosis cell viability, IC50 class symbols; read-out: Activity
Method in brief: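 Necroptosis was triggered by TNF-α (10 ng/ml), SMAC mimetic (6 μM) and zVAD-FMK (10 μM) in serum-free medium during 20 h compound exposure (10 concentrations, threefold steps) of HT-29 cells. IC50 from duplicate dose-responses uses CellTiter-Glo ATP luminescence as viability read-out.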

Row | SMILES | IC50 [nM]
1 | CC1(N)CN(c2cc(Oc3ccc(-n4ncn(Cc5c(F)cccc5F)c4=O)cc3F)c(C#N)cn2)C1 [Example 396, 6-(3-amino-3-methylazetidin-1-yl)-4-(4-(4-(2,6-difluorobenzyl)-5-oxo-4,5-dihydro-1H-1,2,4-triazol-1-yl)-2-fluorophenoxy)nicotinonitrile] | 100 to 1000
2 | Cc1cnc(N2CCC(C)(C#N)C2)cc1Oc1ccc(-n2ncn(Cc3c(F)cccc3F)c2=O)cc1Cl (centres unmarked) [Example 397, 1-(4-(2-chloro-4-(4-(2,6-difluorobenzyl)-5-oxo-4,5-dihydro-1H-1,2,4-triazol-1-yl)phenoxy)-5-methylpyridin-2-yl)-3-methylpyrrolidine-3-carbonitrile] | < 100
3 | Cc1cnc(N2CC(C)(C#N)C2)cc1Oc1ccc(-n2ncn(Cc3c(F)cccc3F)c2=O)cc1Cl [Example 398, 1-(4-(2-chloro-4-(4-(2,6-difluorobenzyl)-5-oxo-4,5-dihydro-1H-1,2,4-triazol-1-yl)phenoxy)-5-methylpyridin-2-yl)-3-methylazetidine-3-carbonitrile] | < 100
4 | CC1(CN)CN(c2cc(Oc3ccc(-n4ncn(Cc5c(F)cccc5F)c4=O)cc3F)c(F)cn2)C1 [Example 399, 2-(4-((2-(3-(aminomethyl)-3-methylazetidin-1-yl)-5-fluoropyridin-4-yl)oxy)-3-fluorophenyl)-4-(2,6-difluorobenzyl)-2,4-dihydro-3H-1,2,4-triazol-3-one] | 100 to 1000
5 | N#C[C@@H]1CCN(c2cc(Oc3ccc(-n4ncn(Cc5c(F)cccc5F)c4=O)cc3)ccn2)C1 [Example 400, (R)-1-(4-(4-(4-(2,6-difluorobenzyl)-5-oxo-4,5-dihydro-1H-1,2,4-triazol-1-yl)phenoxy)pyridin-2-yl)pyrrolidine-3-carbonitrile] | < 100
6 | N#C[C@H]1CCN(c2cc(Oc3ccc(-n4ncn(Cc5c(F)cccc5F)c4=O)cc3)ccn2)C1 [Example 401, (S)-1-(4-(4-(4-(2,6-difluorobenzyl)-5-oxo-4,5-dihydro-1H-1,2,4-triazol-1-yl)phenoxy)pyridin-2-yl)pyrrolidine-3-carbonitrile] | < 100
7 | N#Cc1cc(Oc2ccc(-n3ncn(Cc4c(F)cccc4F)c3=O)cc2F)c(F)cn1 [Example 402, 4-(4-(4-(2,6-difluorobenzyl)-5-oxo-4,5-dihydro-1H-1,2,4-triazol-1-yl)-2-fluorophenoxy)-5-fluoropicolinonitrile] | < 100
8 | O=c1n(-c2ccc(Oc3ccncc3)cc2)nc(Cl)n1Cc1ccccc1 [Example 403, 4-benzyl-5-chloro-2-(4-(pyridin-4-yloxy)phenyl)-2,4-dihydro-3H-1,2,4-triazol-3-one] | 100 to 1000
9 | N#Cc1ccccc1Oc1ccc(-n2ncn(Cc3c(F)cccc3F)c2=O)cc1 [Example 404, 2-(4-(4-(2,6-difluorobenzyl)-5-oxo-4,5-dihydro-1H-1,2,4-triazol-1-yl)phenoxy)benzonitrile] | 100 to 1000
10 | N#Cc1cc(Oc2ccc(-n3ncn(Cc4c(F)cccc4F)c3=O)cc2)ccn1 [Example 405, 4-(4-(4-(2,6-difluorobenzyl)-5-oxo-4,5-dihydro-1H-1,2,4-triazol-1-yl)phenoxy)picolinonitrile] | 100 to 1000
11 | N#Cc1cc(Oc2ccc(-n3ncn(Cc4c(F)cccc4F)c3=O)cc2F)c(Cl)cn1 [Example 406, 5-chloro-4-(4-(4-(2,6-difluorobenzyl)-5-oxo-4,5-dihydro-1H-1,2,4-triazol-1-yl)-2-fluorophenoxy)picolinonitrile] | < 100
12 | CN(CC1CCOCC1)c1cc(Oc2ccc(-n3ncn(Cc4c(F)cccc4F)c3=O)cc2)ccn1 [Example 407, 4-[(2,6-difluorophenyl)methyl]-2-[4-({2-[methyl(oxan-4-ylmethyl)amino]pyridin-4-yl}oxy)phenyl]-1,2,4-triazol-3-one] | 100 to 1000
13 | CN(CC1CCCCO1)c1cc(Oc2ccc(-n3ncn(Cc4c(F)cccc4F)c3=O)cc2)ccn1 (centres unmarked) [Example 408, 4-(2,6-difluorobenzyl)-2-(4-((2-(methyl((tetrahydro-2H-pyran-2-yl)methyl)amino)pyridin-4-yl)oxy)phenyl)-2,4-dihydro-3H-1,2,4-triazol-3-one] | < 100
14 | CCOC1CN(c2nccc(Oc3ccc(-n4ncn(Cc5c(F)cccc5F)c4=O)cc3)c2N)C1 [Example 409, 2-(4-((3-amino-2-(3-ethoxyazetidin-1-yl)pyridin-4-yl)oxy)phenyl)-4-(2,6-difluorobenzyl)-2,4-dihydro-3H-1,2,4-triazol-3-one] | 100 to 1000
15 | Nc1c(Oc2ccc(-n3ncn(Cc4c(F)cccc4F)c3=O)cc2)ccnc1N1CC2(CCOCC2)C1 [Example 410, 2-(4-((3-amino-2-(7-oxa-2-azaspiro[3.5]nonan-2-yl)pyridin-4-yl)oxy)phenyl)-4-(2,6-difluorobenzyl)-2,4-dihydro-3H-1,2,4-triazol-3-one] | 100 to 1000
16 | O=c1n(Cc2c(F)cccc2F)cnn1-c1ccc(Oc2cc(N3CC4(CCN4)C3)ncc2Cl)c(F)c1 [Example 411, 2-(4-((5-chloro-2-(1,6-diazaspiro[3.3]heptan-6-yl)pyridin-4-yl)oxy)-3-fluorophenyl)-4-(2,6-difluorobenzyl)-2,4-dihydro-3H-1,2,4-triazol-3-one hydrochloride] | < 100
17 | O=c1n(Cc2c(F)cccc2F)cnn1-c1ccc(Oc2cc(N3CC4(CCCN4)C3)ncc2Cl)c(F)c1 [Example 412, 2-(4-((5-chloro-2-(2,5-diazaspiro[3.4]octan-2-yl)pyridin-4-yl)oxy)-3-fluorophenyl)-4-(2,6-difluorobenzyl)-2,4-dihydro-3H-1,2,4-triazol-3-one] | 100 to 1000
18 | C[C@H]1C[C@@H](N)CN1c1cc(Oc2ccc(-n3ncn(Cc4c(F)cccc4F)c3=O)cc2F)c(Cl)cn1 [Example 413, 2-(4-((2-((2S,4R)-4-amino-2-methylpyrrolidin-1-yl)-5-chloropyridin-4-yl)oxy)-3-fluorophenyl)-4-(2,6-difluorobenzyl)-2,4-dihydro-3H-1,2,4-triazol-3-one] | < 100
19 | CNC1(C)CN(c2cc(Oc3ccc(-n4ncn(Cc5c(F)cccc5F)c4=O)cc3F)c(Cl)cn2)C1 [Example 414, 2-(4-((5-chloro-2-(3-methyl-3-(methylamino)azetidin-1-yl)pyridin-4-yl)oxy)-3-fluorophenyl)-4-(2,6-difluorobenzyl)-2,4-dihydro-3H-1,2,4-triazol-3-one] | > 10000
20 | C[C@H]1[C@@H](N)CN1c1cc(Oc2ccc(-n3ncn(Cc4c(F)cccc4F)c3=O)cc2F)c(F)cn1 [Example 415, 2-(4-((2-((2S,3S)-3-amino-2-methylazetidin-1-yl)-5-fluoropyridin-4-yl)oxy)-3-fluorophenyl)-4-(2,6-difluorobenzyl)-2,4-dihydro-3H-1,2,4-triazol-3-one] | < 100
21 | CC1(N)CN(c2nccc(Oc3ccc(-n4ncn(Cc5c(F)cccc5F)c4=O)cc3F)c2F)C1 [Example 416, 2-(4-((2-(3-amino-3-methylazetidin-1-yl)-3-fluoropyridin-4-yl)oxy)-3-fluorophenyl)-4-(2,6-difluorobenzyl)-2,4-dihydro-3H-1,2,4-triazol-3-one] | < 100
22 | Cc1c(Oc2ccc(-n3ncn(Cc4c(F)cccc4F)c3=O)cc2F)ccnc1N1CC(C)(N)C1 [Example 417, 2-(4-((2-(3-amino-3-methylazetidin-1-yl)-3-methylpyridin-4-yl)oxy)-3-fluorophenyl)-4-(2,6-difluorobenzyl)-2,4-dihydro-3H-1,2,4-triazol-3-one] | < 100
23 | O=c1n(Cc2c(F)cccc2F)cnn1-c1ccc(Oc2cc(N3CC4(CNC4)C3)ncc2F)c(F)c1 [Example 418, 4-(2,6-difluorobenzyl)-2-(3-fluoro-4-((5-fluoro-2-(2,6-diazaspiro[3.3]heptan-2-yl)pyridin-4-yl)oxy)phenyl)-2,4-dihydro-3H-1,2,4-triazol-3-one] | < 100
24 | CCNC1(C)CN(c2cc(Oc3ccc(-n4ncn(Cc5c(F)cccc5F)c4=O)cc3F)c(F)cn2)C1 [Example 419, 4-(2,6-difluorobenzyl)-2-(4-((2-(3-(ethylamino)-3-methylazetidin-1-yl)-5-fluoropyridin-4-yl)oxy)-3-fluorophenyl)-2,4-dihydro-3H-1,2,4-triazol-3-one] | 100 to 1000
25 | CC1(N)CN(c2nccc(Oc3ccc(-n4ncn(Cc5c(F)cccc5F)c4=O)cc3F)c2Cl)C1 [Example 420, 2-(4-((2-(3-amino-3-methylazetidin-1-yl)-3-chloropyridin-4-yl)oxy)-3-fluorophenyl)-4-(2,6-difluorobenzyl)-2,4-dihydro-3H-1,2,4-triazol-3-one] | < 100
26 | CC1(N)CN(c2cc(Oc3ccc(-n4ncn(Cc5c(F)cccc5F)c4=O)cc3F)c(Cl)cn2)C1 [Example 421, 2-(4-((2-(3-amino-3-methylazetidin-1-yl)-5-chloropyridin-4-yl)oxy)-3-fluorophenyl)-4-(2,6-difluorobenzyl)-2,4-dihydro-3H-1,2,4-triazol-3-one] | < 100
27 | Cc1cnc(N2CC(C)(N)C2)cc1Oc1ccc(-n2ncn(Cc3c(F)cccc3F)c2=O)cc1F [Example 422, 2-(4-((2-(3-amino-3-methylazetidin-1-yl)-5-methylpyridin-4-yl)oxy)-3-fluorophenyl)-4-(2,6-difluorobenzyl)-2,4-dihydro-3H-1,2,4-triazol-3-one] | < 100
28 | CC1(N)CN(c2nccc(Oc3ccc(-n4ncn(Cc5c(F)cccc5F)c4=O)cc3Cl)c2F)C1 [Example 423, 2-(4-((2-(3-amino-3-methylazetidin-1-yl)-3-fluoropyridin-4-yl)oxy)-3-chlorophenyl)-4-(2,6-difluorobenzyl)-2,4-dihydro-3H-1,2,4-triazol-3-one] | < 100
29 | CC1(N)CN(c2cc(Oc3ccc(-n4ncn(Cc5c(F)cccc5F)c4=O)cc3F)c(F)cn2)C1 [Example 424, 2-(4-((2-(3-amino-3-methylazetidin-1-yl)-5-fluoropyridin-4-yl)oxy)-3-fluorophenyl)-4-(2,6-difluorobenzyl)-2,4-dihydro-3H-1,2,4-triazol-3-one] | 100 to 1000

Source: US20250179061A1 (SIRONAX LTD., priority 2022, published 2025)
